Experimental data reported in patent publication US20060019934A1, “Anti-HIV-1 activity of betulinol derivatives” (priority 2004, published 2006).
Like-named read-outs stand apart in the source and are kept apart here.

Legend:
[1] = system: carcinoma cell line CO-115 of the large intestine; settings: CO-115 cells; cited from earlier work
HIV-1 IIIB isolate = test: HIV-1 p24 antigen capture ELISA, acutely infected 174XCEM cells; assay type: cell-based; settings: for anti-HIV-1 activity compared with other betulinol derivatives: 1 μg/ml, p24 OD, FIG. 1
Excerpt: The assay methods described herein are known in the art, and are described in detail, for example, in Crombie et al., J. Exp. Med. 187:25-35 (1998), which is hereby incorporated by reference in its entirety.
Cultures were maintained in culture medium (RPMI-1640+10% fetal bovine serum (“FBS”)) for 4 days, the culture supernatants were then collected, lysed with Triton®-X 100 surfactant, and HIV-1 gag (p24) antigen activity assessed by a standard technique, the Antigen Capture ELISA (enzyme-linked immunosorbent assay) (Roche-NEN).
Data are presented in optical density (“OD”) units, which are linear with ng/ml of p24 Ag from 0.15 to 1.5 OD, and can be converted to pg/ml of HIV-1 antigen using a standard curve.

174XCEM cells = test: Cell viability by trypan blue dye exclusion; settings: for effect on total cell number or cell viability: trypan blue dye exclusion at four days and seven days
Protocol: Human T-B hybridoma cell line 174XCEM was exposed to a low multiplicity of infection (“MOI”) (MOI=1.0) of stock HIV-1 IIIB isolate for 2 hours at 37° C., washed ×3 with phosphate buffered saline (“PBS”), then plated at 250,000 cells/well in the presence of various agents, shown in Table 2. Dimethyl sulfoxide (“DMSO”) buffer was used as a “no virus” control. A commercially available synthetic peptide, thrombospondin peptide (“TSP”), known as having HIV-1 inhibitory activity, was used as an “inhibitory activity” control. Two HIV isolates were used, a patient isolate (“child HIV”), and the standard CXCR4 co-receptor utilizing isolate IIIB.
The cell samples were assessed by trypan blue dye exclusion at four days and seven days.

[2] = Hashimoto et al. 1997; cited from earlier work
another HIV-1 isolate = test: Effect on 174XCEM cells chronically infected with another HIV-1 isolate; assay type: cell-based
Protocol: Agents were also evaluated for an effect on 174XCEM cells chronically infected with another HIV-1 isolate.

[3] = 174XCEM cells, HIV-1 IIIB, agents 1 μg/ml, p24 at 4 days, FIG. 2
[4] = varying doses up to 2 μg/ml, FIG. 3-5
[5] = chronically infected 174XCEM cells, single dose 1 μg/ml

Compound: C=C(C)[C@@H]1CC[C@]2(C(=O)O)CC[C@]3(C)[C@H](CC[C@@H]4[C@@]5(C)CC[C@H](O)C(C)(C)[C@@H]5CC[C@]43C)[C@@H]12 [betulinic acid]
- LD 50 [1]: 0.375 mg/mL

Compound: betulin dimethyl ether
- anti-HIV-1 activity compared with other betulinol derivatives (HIV-1 IIIB isolate): superior
- effect on total cell number or cell viability (174XCEM cells): no effect

Compound: C=C(C)[C@@H]1CC[C@]2(C(=O)O)CC[C@]3(C)[C@H](CC[C@@H]4[C@@]5(C)CCC(=O)C(C)(C)[C@@H]5CC[C@]43C)[C@@H]12 [betulonic acid]
- cytotoxicity, interfering with the proliferation of cells [2]: cytotoxic

Compound: C=C(C)[C@@H]1CC[C@]2(CO)CC[C@]3(C)[C@H](CC[C@@H]4[C@@]5(C)CC[C@H](OC(C)=O)C(C)(C)[C@@H]5CC[C@]43C)[C@@H]12 [3-acetoxy betulin]
- anti-HIV-1 activity compared with other betulinol derivatives (HIV-1 IIIB isolate): superior
- effect on total cell number or cell viability (174XCEM cells): no effect

Compound: C=C(C)[C@@H]1CC[C@]2(COC(C)=O)CC[C@]3(C)[C@H](CC[C@@H]4[C@@]5(C)CC[C@H](OC(C)=O)C(C)(C)[C@@H]5CC[C@]43C)[C@@H]12 [betulin diacetate]
- dose-related anti-HIV effect (HIV-1 IIIB isolate): Progressive increases in anti-HIV effect
- inhibition (anti-HIV-1 effect) (HIV-1 IIIB isolate): 57%
- cell toxicity (174XCEM cells; doses of 0.5, 1.5, and 2 μg/ml): without cell toxicity
- inhibition in chronically infected cells (another HIV-1 isolate): 20%

Compound: C=C(C)C1CCC2(CO)CC[C@]3(C)[C@H](CC[C@@H]4[C@@]5(C)CCC(O)C(C)(C)[C@@H]5CC[C@]43C)C12 (stereo partly drawn) [betulinol, lup-20(29)-ene-3β, 28-diol]
- inhibition (anti-HIV-1 effect) (HIV-1 IIIB isolate; [3]): no effect
- dose-related anti-HIV effect (HIV-1 IIIB isolate; [4]): increasing anti-HIV effect
- inhibition in chronically infected cells (another HIV-1 isolate; [5]): minimal effect

Compound: C=C(C)[C@@H]1CC[C@]2(COC(C)=O)CC[C@]3(C)[C@H](CC[C@@H]4[C@@]5(C)CC[C@H](O)C(C)(C)[C@@H]5CC[C@]43C)[C@@H]12 [28-acetoxy betulin]
- anti-HIV-1 activity compared with other betulinol derivatives (HIV-1 IIIB isolate): superior
- dose-related anti-HIV effect (HIV-1 IIIB isolate; [4]): comparable anti-HIV-1 activity
- effect on total cell number or cell viability (174XCEM cells): no effect

Compound: C=C(C)C1CCC2(C=O)CC[C@]3(C)[C@H](CC[C@@H]4[C@@]5(C)CCC(=O)C(C)(C)[C@@H]5CC[C@]43C)C12 (stereo partly shown) [betulone aldehyde]
- inhibition (anti-HIV-1 effect) (HIV-1 IIIB isolate; [3]): 37%
- dose-related anti-HIV effect (HIV-1 IIIB isolate; [4]): Progressive increases in anti-HIV effect
- inhibition in chronically infected cells (another HIV-1 isolate; [5]): minimal effect
